Source: ChEMBL document CHEMBL4152189, “Incorporation of nitric oxide donor into 1,3-dioxyxanthones leads to synergistic anticancer activity” (Eur J Med Chem, 2018)

How the values were obtained:
[1] = test system: HepG2; assay: Growth inhibition of human HepG2 cells after 24 hrs by MTT assay; type: functional, cell-based; conditions: HepG2, 24 h
[2] = test system: MDA-MB-231; assay: Growth inhibition of human MDA-MB-231 cells after 24 hrs by MTT assay; type: functional, cell-based; conditions: MDA-MB-231, 24 h
[3] = test system: MCF7; assay: Growth inhibition of human MCF7 cells after 24 hrs by MTT assay; type: functional, cell-based; conditions: MCF7, 24 h
[4] = test system: HepG2; assay: Induction of NO generation in human HepG2 cells assessed as nitrite levels at 0.66 uM after 1 hr by Griess assay (reference value: 12.9 +/- 1.5 uM); type: functional
[5] = test system: HepG2; assay: Induction of NO generation in human HepG2 cells assessed as nitrite levels at 0.66 uM after 3 hrs by Griess assay (reference value: 12.8 +/- 1.5 uM); type: functional
[6] = test system: HepG2; assay: Induction of NO generation in human HepG2 cells assessed as nitrite levels at 0.66 uM after 6 hrs by Griess assay (reference value: 12.6 +/- 1.1 uM); type: functional
[7] = test system: HepG2; assay: Induction of NO generation in human HepG2 cells assessed as nitrite levels at 0.66 uM after 12 hrs by Griess assay (reference value: 12.7 +/- 1.8 uM); type: functional
[8] = test system: HepG2; assay: Induction of NO generation in human HepG2 cells assessed as nitrite levels at 0.66 uM after 24 hrs by Griess assay (reference value: 12.8 +/- 1.7 uM); type: functional
[9] = test system: HepG2; assay: Induction of NO generation in human HepG2 cells assessed as nitrite levels at 0.66 uM after 48 hrs by Griess assay (reference value: 12.8 +/- 1.7 uM); type: functional
[10] = test system: HepG2; assay: Induction of NO generation in human HepG2 cells assessed as nitrite levels at 0.66 uM after 60 hrs by Griess assay (reference value: 12.8 +/- 1.5 uM); type: functional
[11] = test system: L02; assay: Induction of NO generation in human HL-7702 cells assessed as nitrite levels at 0.66 uM after 1 hr by Griess assay (reference value: 11.6 +/- 1.1 uM); type: functional
[12] = test system: L02; assay: Induction of NO generation in human HL-7702 cells assessed as nitrite levels at 0.66 uM after 3 hrs by Griess assay (reference value: 11.6 +/- 1.2 uM); type: functional
[13] = test system: L02; assay: Induction of NO generation in human HL-7702 cells assessed as nitrite levels at 0.66 uM after 6 hrs by Griess assay (reference value: 11.8 +/- 1.1 uM); type: functional
[14] = test system: L02; assay: Induction of NO generation in human HL-7702 cells assessed as nitrite levels at 0.66 uM after 12 hrs by Griess assay (reference value: 11.8 +/- 1.2 uM); type: functional
[15] = test system: L02; assay: Induction of NO generation in human HL-7702 cells assessed as nitrite levels at 0.66 uM after 24 hrs by Griess assay (reference value: 11.6 +/- 1.1 uM); type: functional
[16] = test system: L02; assay: Induction of NO generation in human HL-7702 cells assessed as nitrite levels at 0.66 uM after 48 hrs by Griess assay (reference value: 11.6 +/- 1.1 uM); type: functional
[17] = test system: L02; assay: Induction of NO generation in human HL-7702 cells assessed as nitrite levels at 0.66 uM after 60 hrs by Griess assay (reference value: 11.8 +/- 1.3 uM); type: functional

O=[N+]([O-])OCCCCCO
IC50 [1]: 72.8 µM | IC50 [2]: 140 µM | IC50 [3]: 102 µM | Activity [4]: 16.2 µM | Activity [5]: 18.4 µM | Activity [6]: 23.3 µM | Activity [7]: 26 µM | Activity [8]: 29.2 µM | Activity [9]: 24.6 µM | Activity [10]: 17.1 µM | Activity [11]: 13.5 µM | Activity [12]: 13.8 µM | Activity [13]: 16 µM | Activity [14]: 17.5 µM | Activity [15]: 14.1 µM | Activity [16]: 13.4 µM | Activity [17]: 13.3 µM
